Measured values from patent US20260000496A1, “MATERIALS AND METHODS FOR DRUG-INDUCED GINGIVAL OVERGROWTH” (Optimed Technology, Inc., priority 2019, published 2026).

Tests used:
MyD88 = assay: Western blot of MyD88 in oral keratinocytes; format: cell-based, human; conditions: treated with CsA and LPS to simulate the disease, FIG. 35
Procedure: (§1) Cell Culture. Normal human oral keratinocytes (NOKSI) and fibroblast (HOF) cells were maintained in Dulbecco […] Eagle's medium (Sigma-Aldrich, St. Louis, MO, USA) supplemented with 10% fetal bovine serum (Atlas Bio-logicals, Fort Collins, CO, USA) and 100 units/mL penicillin and 100 μg/mL streptomycin (LifeTechnologies, Carlsbad, CA, USA). Cells were grown in incubator at 37° C. in a humidified chamber with 5% CO2.
Drugs treatment in cell culture. The cells were treated alone or with different combination of lipopolysaccharide, cyclosporine, phenytoin, and folic acid. All of them were purchased from Sigma-Aldrich (St. Louis, MO, USA). Each of them were used from 0 μg/ml to 40 μg/ml and the optimum concentration were found 10 μg/ml.
Western blot analysis. Cells were seeded in 60 mm plates with a density of 5×10^5 cells per plate and washed briefly with Dulbecco's phosphate-buffered saline (Gibco, Waltham, MA, USA). Whole cell lysates were prepared using RIPA lysis buffer containing protease inhibitor cocktail (Sigma-Aldrich). Total protein concentration was determined using the BCA reagent (Pierce, Waltham, MA, USA). 20 μg of total protein were resolved on sodium dodecyl sulfate-polyacrylamide gel electrophoresis and transferred to polyvinylidenedifluoride membrane and immunoblotted. The blots were incubated for 1 h in 1% bovine serum albumin (BSA) (Sigma-Aldrich) to block the non-specific bindings followed by over-night incubation in primary antibodies (MyD88 and pP65 from Cell Signaling Technology, and human LITAF ThermoFisher Sigma) at 4° C. on shaker. Next day, blots were washed for three times (10 min each) in Tris-buffered saline containing 1% Tween20 (TBST) followed by incubation with secondary antibody (Goat anti-rabbit IgG HRP) with 1:10,000 dilution for 1 h. Following washes, bands were visualized using gel documentation Imaging Systems (BioRad). The band intensities were quantified using software ImageJ (NIH, USA) and relative protein levels were normalized by β-actin (Cell Signaling). To perform the western blot of animal tissue samples, the gingival tissues were collected from both BABLB/c and C57BL/6 mice studies. The soft tissues were separated from the mandibular bone and then crunched. The Bradford assay was performed to measure the protein concentration of each sample. After normalization, 20 μg of whole tissue protein lysate were proceeded for western blot analysis.

[1] = test system: Collagen type I alpha 1 (Col1a1); assay: Collagen (Col1a1) expression in Human Oral Fibroblasts, QPCR; format: cell-based; conditions: fibroblasts treated with TGF-β, FIG. 1
Procedure: as §1
Human Oral Fibroblasts (HOF) cells were seeded in 60 mm plates with a density of 2.5×10^4/cm^2 and treated with condition (CM) media collected from Oral Keratinocytes containing LPS (10 μg/ml), CSA (10 μg/ml), Phenytoin (10 μg/ml), or Folic acid (10 μg/ml) and incubated for 24 hours. The Collagen type I alpha 1 (Col1a1) gene expression was determined by QPCR. HOF cells were treated with rTGF-β, SB-431542 (SB), rTNF-α, or TNF-α inhibitor (TNF-α inh). Quantitative real-time PCR results showing the expression of Col1a1 in HOF cells after the treatment. (p<0.05).

| Substance | MyD88 expression in human oral keratinocytes after disease-simulating treatment (MyD88) | collagen expression in fibroblasts [1] |
| --- | --- | --- |
| Lipopolysaccharide | robustly induce MyD88 expression |  |
| TGF-β |  | induce collagen expression |
